Assay results taken from patent US9464056B2, “Fungicidal 4-methylanilino pyrazoles” (E. I. DU PONT DE NEMOURS AND COMPANY, priority 2012, dated 2016).

What was measured:
Botrytis cinerea = experiment: Test A: preventive spray on tomato seedlings, Botrytis cinerea (tomato Botrytis), visual disease rating; assay type: in vivo; settings: 100 = 100% disease control, 0 = no disease control relative to controls
Description: (§1) General protocol for preparing test suspensions for Tests A-H: the test compounds were first dissolved in acetone in an amount equal to 3% of the final volume and then suspended at the desired concentration (in ppm) in acetone and purified water (50/50 mix by volume) containing 250 ppm of the surfactant Trem® 014 (polyhydric alcohol esters). The resulting test suspensions were then used in Tests A-F. Spraying a 40 ppm test suspension to the point of run-off on the test plants was the equivalent of a rate of 160 g/ha. Unless otherwise indicated, the rating values indicate a 40 ppm test suspension was used. The test suspension was sprayed to the point of run-off on tomato seedlings. The following day the seedlings were inoculated with a spore suspension of Botrytis cinerea (the causal agent of tomato Botrytis) and incubated in saturated atmosphere at 20° C. for 48 h, and then moved to a growth chamber at 27° C. for 3 days, after which time visual disease ratings were made. Results for Tests A-F are given in Table A. In the Table, a rating of 100 indicates 100% disease control and a rating of 0 indicates no disease control (relative to the controls). A dash (-) indicates no test results.

[1] = tested on: Blumeria graminis f. sp. tritici; experiment: Test F: preventive spray on wheat seedlings, Blumeria graminis f. sp. tritici (wheat powdery mildew), visual disease rating; assay type: in vivo; settings: topical, 192 h, 100 = 100% disease control, 0 = no disease control relative to controls
Description: as §1, with “on wheat” for “on tomato”, “spore dust” for “spore suspension”, “of Blumeria graminis f. sp. tritici (also known as Erysiphe graminis f. sp. tritici, the” for “of Botrytis cinerea (the”, “of wheat powdery mildew)” for “of tomato Botrytis)”, “in a growth chamber” for “in saturated atmosphere”, “for 8” for “for 48 h, and then moved to a growth chamber at 27° C. for 3”

Septoria tritici = experiment: Test D: preventive spray on wheat seedlings, Septoria tritici (wheat leaf blotch), visual disease rating; assay type: in vivo; settings: Zymoseptoria tritici, topical, 504 h, 100 = 100% disease control, 0 = no disease control relative to controls
Description: as §1, with “on wheat” for “on tomato”, “of Septoria tritici” for “of Botrytis cinerea”, “of wheat leaf blotch)” for “of tomato Botrytis)”, “at 24°” for “at 20°”, “at 20°” for “at 27°”, “for 19” for “for 3”

Septoria nodorum = experiment: Test C: preventive spray on wheat seedlings, Septoria nodorum (Septoria glume blotch), visual disease rating; assay type: in vivo; settings: Parastagonospora nodorum, topical, 264 h, 100 = 100% disease control, 0 = no disease control relative to controls
Description: (§2) General protocol for preparing test suspensions for Tests A-H: the test compounds were first dissolved in acetone in an amount equal to 3% of the final volume and then suspended at the desired concentration (in ppm) in acetone and purified water (50/50 mix by volume) containing 250 ppm of the surfactant Trem® 014 (polyhydric alcohol esters). The resulting test suspensions were then used in Tests A-F. Spraying a 40 ppm test suspension to the point of run-off on the test plants was the equivalent of a rate of 160 g/ha. Unless otherwise indicated, the rating values indicate a 40 ppm test suspension was used. The test suspension was sprayed to the point of run-off on wheat seedlings. The following day the seedlings were inoculated with a spore suspension of Septoria nodorum (the causal agent of Septoria glume blotch) and incubated in a saturated atmosphere at 20° C. for 48 h, and then moved to a growth chamber at 20° C. for 9 days, after which time visual disease ratings were made. Results for Tests A-F are given in Table A. In the Table, a rating of 100 indicates 100% disease control and a rating of 0 indicates no disease control (relative to the controls). A dash (-) indicates no test results.

[2] = tested on: Puccinia recondita f. sp. tritici; experiment: Test E2: preventive spray on wheat seedlings, Puccinia recondita f. sp. tritici (wheat leaf rust), visual disease rating; assay type: in vivo; settings: topical, 192 h, 100 = 100% disease control, 0 = no disease control relative to controls
Description: as §2, with “Puccinia recondita f. sp. tritici” for “Septoria nodorum”, “wheat leaf rust)” for “Septoria glume blotch)”, “24” for “48”, “7” for “9”

Compound | pest or weed control at 40 µg/mL (Botrytis cinerea) [%] | pest or weed control at 40 µg/mL [1] [%] | pest or weed control at 40 µg/mL (Septoria tritici) [%] | pest or weed control at 40 µg/mL (Septoria nodorum) [%] | pest or weed control at 40 µg/mL [2] [%] | melting point [°C]
Cc1ccc(Nc2c(-c3ccc(F)cc3Cl)c(C)nn2C)c(Cl)c1 [Compound 2, 4-(2-chloro-4-fluorophenyl)-N-(2-chloro-4-methylphenyl)-1,3-dimethyl-1H-pyrazol-5-amine] | 100 | 97 | 100 | 0 | 95 | –
Cc1ccc(Nc2c(-c3ccc(F)cc3Cl)c(C)nn2C)c(Br)c1 [Compound 3, N-(2-bromo-4-methylphenyl)-4-(2-chloro-4-fluorophenyl)-1,3-dimethyl-1H-pyrazol-5-amine] | 99 | 96 | 100 | 0 | 99 | –
Cc1ccc(Nc2c(-c3ccc(F)cc3Br)c(C)nn2C)c(Cl)c1 [Compound 4, 4-(2-bromo-4-fluorophenyl)-N-(2-chloro-4-methylphenyl)-1,3-dimethyl-1H-pyrazol-5-amine] | 100 | 97 | 100 | 0 | 97 | –
Cc1ccc(Nc2c(-c3ccc(F)cc3Br)c(C)nn2C)c(Br)c1 [Compound 5, 4-(2-bromo-4-fluorophenyl)-N-(2-bromo-4-methylphenyl)-1,3-dimethyl-1H-pyrazol-5-amine] | 99 | 97 | 100 | 0 | 97 | –
Cc1ccc(Nc2c(-c3ccc(F)cc3Cl)c(C)nn2C)c(F)c1 [Compound 6, 4-(2-chloro-4-fluorophenyl)-N-(2-fluoro-4-methylphenyl)-1,3-dimethyl-1H-pyrazol-5-amine] | 99 | 100 | 100 | 0 | 0 | –
Cc1cc(F)c(Nc2c(-c3ccc(F)cc3Br)c(C)nn2C)c(Br)c1 [Compound 7, N-(2-bromo-6-fluoro-4-methylphenyl)-4-(2-bromo-4-fluorophenyl)-1,3-dimethyl-1H-pyrazol-5-amine] | 100 | 100 | 100 | 99 | 100 | 143 to 145
Cc1cc(F)c(Nc2c(-c3ccc(F)cc3F)c(C)nn2C)c(Br)c1 [Compound 8, N-(2-bromo-6-fluoro-4-methylphenyl)-4-(2,4-difluorophenyl)-1,3-dimethyl-1H-pyrazol-5-amine] | 100 | 100 | 100 | 97 | 100 | 143 to 144
Cc1cc(F)c(Nc2c(-c3ccc(F)cc3F)c(C)nn2C)c(F)c1 [Compound 9, N-(2,6-difluoro-4-methylphenyl)-4-(2,4-difluorophenyl)-1,3-dimethyl-1H-pyrazol-5-amine] | 100 | 100 | 100 | 96 | 96 | 156 to 158
Cc1cc(F)c(Nc2c(-c3ccc(F)cc3Cl)c(C)nn2C)c(F)c1 [Compound 10, 4-(2-chloro-4-fluorophenyl)-N-(2,6-difluoro-4-methylphenyl)-1,3-dimethyl-1H-pyrazol-5-amine] | 100 | 100 | 100 | 90 | 100 | 121 to 123
Cc1cc(F)c(Nc2c(-c3ccc(F)cc3Br)c(C)nn2C)c(Cl)c1 [Compound 11, 4-(2-bromo-4-fluorophenyl)-N-(2-chloro-6-fluoro-4-methylphenyl)-1,3-dimethyl-1H-pyrazol-5-amine] | – | – | – | – | – | 145 to 146
Cc1cc(F)c(Nc2c(-c3ccc(F)cc3Cl)c(C)nn2C)c(Cl)c1 [Compound 12, N-(2-chloro-6-fluoro-4-methylphenyl)-4-(2-chloro-4-fluorophenyl)-1,3-dimethyl-1H-pyrazol-5-amine] | – | – | – | – | – | 137 to 138
Cc1cc(Cl)c(Nc2c(-c3ccc(F)cc3Cl)c(C)nn2C)c(Cl)c1 [Compound 13, 4-(2-chloro-4-fluorophenyl)-N-(2,6-dichloro-4-methylphenyl)-1,3-dimethyl-1H-pyrazol-5-amine] | 100 | 100 | 100 | 0 | 100 | 188 to 189
Cc1cc(F)c(Nc2c(-c3ccc(F)cc3Br)c(C)nn2C)c(F)c1 [Compound 14, 4-(2-bromo-4-fluorophenyl)-N-(2,6-difluoro-4-methylphenyl)-1,3-dimethyl-1H-pyrazol-5-amine] | 100 | 100 | 100 | 86 | 100 | 114 to 116
Cc1cc(Cl)c(Nc2c(-c3ccc(F)cc3Br)c(C)nn2C)c(Cl)c1 [Compound 15, 4-(2-bromo-4-fluorophenyl)-N-(2,6-dichloro-4-methylphenyl)-1,3-dimethyl-1H-pyrazol-5-amine] | 100 | 99 | 100 | 0 | 100 | 191 to 192
